Source: US6384045B1, “Tricyclic and tetracyclic pyrones” (Kansas State University Research Foundation, priority 1997, dated 2002)
“Also recorded” adds a separate entry of the source.

Tests used:
[1] = test system: T1, liver and intestinal microsomal ACAT; test: Inhibition of liver and intestinal microsomal ACAT activity; assay type: biochemical
T1 construct: other: 100 μM; other: 44 nM; other: 50 μM
Procedure: . Microsomes were prepared from liver and intestinal mucosal scrapings by sequential centrifugation and in vitro ACAT activity assays were done according to the method of Billheimer (Billheimer, J. T. (1985), “Cholesterol acyltransferase,” In Methods in Enzymology 111:286-293). Briefly, 100 μg microsomal protein, 22 μg BSA, and 52 nmol cholesterol and the synthesized drug in 5 μL DMSO were preincubated for 30 minutes at 37° C. in a phosphate buffer (200 μL total volume). After 30 minutes, 1 nmol [^14C]oleoyl-CoA was added as substrate and incubated for an additional 20 minutes. The reaction was stopped with the addition of 1 mL ethanol and lipids were extracted with hexane. Cholesteryl [^14C]oleate formation was quantified by thin-layer chromatography and data are expressed as percent inhibition of ACAT activity (pmol/μg protein per minute) compared to a control sample incubated with no drug. All samples were run in duplicate. […]

[2] = test system: L1210 lymphoblastic leukemia cells; test: Inhibition of L1210 tumor cell growth in vitro (Coulter counter); assay type: cell-based, Murine; details: for inhibition of L1210 cell growth (% reduction of control cell numbers): 50 μM, 3 and 4 days in culture; for reduction of L1210 cell numbers vs control: 0.78 μM
Procedure: Cells were plated at an initial density of 1×10^4 cells/0.5 ml/well in RPMI 1640 medium, containing 7.5% fortified bovine calf serum, and grown at 37° C. for 4 days in a humidified incubator in 5% CO2 in air. Cells were incubated in the presence or absence (^•, control) of 50 μM 3A (▪), 2D & 2E (□),3D & 3E (▴), 2B & 2C (Δ) 2A (♦), 3B & 3C (⋄), or 10 μM CPT (∘) and their density was monitored in triplicate every 24 h using a Coulter counter. Cells numbers are plotted on a logarithmic scale.
(§1) All solutions of tricyclic pyrone analogs were dissolved and diluted in 100% ethanol (ETOH), whereas CPT (Sigma Chemical Co., St. Louis, Mo.) solutions were prepared in 100% dimethyl sulfoxide (DMSO). Murine L1210 lymphoblastic leukemia cells, obtained from the American Type Culture Collection (Rockville, Md.), were maintained in continuous exponential growth by twice-a-week passage in RPMI 1640 medium supplemented with 7.5% fortified bovine calf serum (HyClone Laboratories, Inc., Logan, Utah). The cultures were incubated at 37° C. in a humidified atmosphere containing 5% CO2. All drugs were supplemented to the culture medium in 1- or 2 μl aliquots. The concentration of vehicle in the final incubation volume never exceeded 0.2-0.4%. […] Control cells incubated in the absence of drugs were similarly treated with vehicle only and, in every experiment, all incubates received the same volume of solvent.
For tumor cell growth, L1210 cells were resuspended in fresh serum-containing RPMI 1640 medium, plated at an initial density of 1×10^4 cells/0.5 ml, and incubated in 48-well Costar cell culture plates (Costar, Cambridge, Mass.). Cells were grown for 4 days in the presence or absence of drugs and their density was monitored every 24 h using a Coulter counter (Coulter Electronics, Ltd., Luton Beds, England). Data of all in vitro experiments were analyzed using Student's t-test with the level of significance set at P<0.05.

[3] = test system: L1210 lymphoblastic leukemia cells; test: Inhibition of DNA synthesis (3H-thymidine incorporation) in L1210 cells in vitro; assay type: cell-based, Murine; details: for inhibition of DNA synthesis in L1210 cells: 90 min + 30 min pulse
Procedure: FIG. 1 illustrates a comparison of the effects of four new tricyclic pyrone derivatives and CPT on DNA synthesis in L1210 cells in vitro. About 2.53×10^6 cells suspended in 0.5 ml of RPMI 1640 medium were incubated at 37° C. for 90 minutes in the presence or absence (control) of the indicated concentrations of drugs. The cells were then pulse-labeled for an additional 30 minutes to determine the rate of ^3H-thymidine incorporation into DNA. DNA synthesis in vehicle-treated control cells was 43,956±4,569 cpm (100±11%). The blank value (1,241±99 cpm) for cells pulse-labeled for 0 minutes with 1 μCi of ^3H-thymidine has been subtracted from the results. Bars: means±SD (n=3).
as §1
For DNA synthesis, L1210 cells were resuspended in fresh serum-free RPMI 1640 medium at a density of about 2.5×10^6 cells/0.5 ml. The cells were incubated at 37° C. for 90 min in the presence or absence of drugs and then pulse-labeled for an additional 30 min with 1 μCi of [methyl-^3H]thymidine (51 Ci/mmol; Amersham Corp., Arlington Heights, Ill.). The incubations were terminated by the addition of 0.5 ml of 10% trichloroacetic acid (TCA). After holding on ice for 15 min, the acid-insoluble material was recovered over Whatman GF/A glass microfibre filters and washed thrice with 2 ml of 5% TCA and twice with 2 ml of 100% EtOH. After drying the filters, the radioactivity bound to the acid-precipitable material was determined by liquid scintillation counting in 10 ml of Bio-Safe NA (Research Products International Corp., Mount Prospect, Ill.).

[4] = target: acetylcholinesterase (AChE) (UniProt O42275); assay type: biochemical, electric eel; fetal bovine serum; details: read-out: AChE inhibition constant Ki ± std. error; 30° C., pH 8.0
acetylcholinesterase (AChE), sequence (O42275 whole entry): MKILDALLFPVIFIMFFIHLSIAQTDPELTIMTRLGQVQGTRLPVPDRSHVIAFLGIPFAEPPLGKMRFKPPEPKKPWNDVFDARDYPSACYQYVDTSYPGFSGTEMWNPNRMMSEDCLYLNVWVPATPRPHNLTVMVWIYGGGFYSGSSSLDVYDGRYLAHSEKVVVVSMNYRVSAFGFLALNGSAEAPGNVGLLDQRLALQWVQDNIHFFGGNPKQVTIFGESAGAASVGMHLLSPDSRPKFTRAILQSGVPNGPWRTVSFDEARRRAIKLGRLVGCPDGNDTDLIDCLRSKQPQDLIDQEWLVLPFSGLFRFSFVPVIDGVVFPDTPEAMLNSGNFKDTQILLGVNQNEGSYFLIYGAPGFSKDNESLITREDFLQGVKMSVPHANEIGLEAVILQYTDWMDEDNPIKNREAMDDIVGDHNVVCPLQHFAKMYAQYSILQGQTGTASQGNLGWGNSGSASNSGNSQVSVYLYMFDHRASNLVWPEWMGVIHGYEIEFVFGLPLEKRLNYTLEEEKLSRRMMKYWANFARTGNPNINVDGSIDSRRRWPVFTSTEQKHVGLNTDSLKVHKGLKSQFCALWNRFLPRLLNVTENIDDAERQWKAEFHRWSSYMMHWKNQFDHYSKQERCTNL
Procedure: Acetylcholinesterase Assay and Inhibition Kinetics: Tricyclic pyrones of this invention were tested for inhibition of AChE. […] Reactions were carried out at 30° C. in 0.1 M sodium phosphate buffer at pH 8.0 in the presence of […] and 3.3×10^−4 M 3-carboxy-4-nitrophenyl disulfide. Aliquots of incubating mixtures containing enzyme alone, or enzyme in the presence of each carbamate, were withdrawn at selected time intervals and assayed for enzyme activity in order to obtain kinetic data. From the kinetic data, inhibition and bimolecular rate constants were calculated by the equation: [formula]
in which kapp is the pseudo-first-order rate constant.

| Compound | % Inhibition of ACAT ([1]; 50 μM) [%] | % Inhibition of ACAT ([1]; 100 μM) [%] | Ki [4] [µM] | also measured |
| --- | --- | --- | --- | --- |
| O=c1oc(-c2cccnc2)cc2c1[C@@H](O)[C@@]1(O)CCCC[C@@H]1O2 (relative stereo) [Compound 38B, (5aS*,9aR*,10R*)-9a,10-Dihydroxy-3-(3-pyridyl)-1H-5a,6,7,8,9,9a,10-heptahydro-1-oxopyrano[4,3-b][1]benzopyran] | 9.7 | 11.4 | – | – |
| CC12Oc3cc(-c4cccnc4)oc(=O)c3C=C1CCCC2O (stereo not drawn) [2B & 2C, cis- and trans-3-(3-pyridyl)-5a-methyl-6-hydroxy-1H-5a,6,7,8,9-pentahydro-1-oxopyrano[4,3-b]benzopyran] | – | – | – | inhibition of L1210 cell growth (% reduction of control cell numbers) [2]: cannot inhibit the growth |
| CC12Oc3cc(-c4cccnc4)oc(=O)c3C=C1CCCC2OC=O (stereo not drawn) [2D & 2E, cis- and trans-3-(3-pyridyl)-5a-methyl-6-formyloxy-1H-5a,6,7,8,9-pentahydro-1-oxopyrano[4,3-b]benzopyran] | – | – | – | inhibition of DNA synthesis in L1210 cells ([3]; 25 μM): no significant effects; inhibition of DNA synthesis in L1210 cells ([3]; 50 μM, 50 µM): 49%; inhibition of L1210 cell growth (% reduction of control cell numbers) [2]: cannot inhibit the growth |
| CCCCCCCC[C@H](SCCCCCC)C(=O)Nc1c(SC)cc(C)nc1SC [CP-113,818, reference compound] | – | – | – | % Inhibition of ACAT ([1]; 44 nM): 42.5% |
| CC[C@@]1(O)C(=O)OCc2c1cc1n(c2=O)Cc2cc3ccccc3nc2-1 [CPT, 20(S)-camptothecin (CPT), reference compound] | – | – | – | IC50 ([3]; Mus musculus, L1210, 2 h, read-out: concentration that inhibits DNA synthesis by 50% (IC50)): ~0.65 µM; reduction of L1210 cell numbers vs control ([2]; 1 day): 46%; reduction of L1210 cell numbers vs control ([2]; 2 days): 85%; reduction of L1210 cell numbers vs control ([2]; 3 days): 97%; reduction of L1210 cell numbers vs control ([2]; 4 days): 99% |
| Cc1cc2c(c(=O)o1)C=C1CCC[C@H](O)[C@@]1(C)O2 [Compound 1B, cis-3-5a-dimethyl-6-hydroxy-1H-5a,6,7,8,9-pentahydro-1-oxopyrano[4,3-b][1]benzopyran] | – | – | 20 ± 5.8 | – |
| Cc1cc2c(c(=O)o1)C=C1CCCC(OC=O)C1(C)O2 (stereo not drawn) [Compound 1D, cis-3-5-a-dimethyl-6-formyloxy-1H-5a,6,7,8,9-pentahydro-1-oxopyrano[4,3-b][1]benzopyran] | – | – | 5 ± 1.7 | IC50 ([1]; using literature IC50 of pyripyropene as standard): 52 µM |
| CC12Oc3cc(-c4cccnc4)oc(=O)c3C=C1CCCC2O (stereo not drawn) [Compound 2B, cis-3-(3-pyridyl)-5a-methyl-6-hydroxy-1H-5a,6,7,8,9-pentahydro-1-oxopyrano[4,3-b][1]benzopyran] | – | – | 8 ± 2.3 | – |
| CC12Oc3cc(-c4cccnc4)oc(=O)c3C=C1CCCC2OC=O (stereo not drawn) [Compound 2D, cis-3-(3-pyridyl)-5a-methyl-6-formyloxy-1H-5a,6,7,8,9-pentahydro-1-oxopyrano[4,3-b][1]benzopyran] | – | – | 26 ± 2.3 | – |
| COc1ccc(-c2cc3c(c(=O)o2)C=C2CCCC(O)C2(C)O3)cc1OC (stereo not drawn) [Compound 3B, cis-3-(3,4-dimethoxyphenyl)-5a-methyl-6-hydroxy-1H-5a,6,7,8,9-pentahydro-1-oxopyrano[4,3-b][1]benzopyran] | – | – | 4 ± 0.6 | – |
| COc1ccc(-c2cc3c(c(=O)o2)C=C2CCCC(OC=O)C2(C)O3)cc1OC (stereo not drawn) [Compound 3D, cis-3-(3,4-Dimethoxyphenyl)-6-formyloxy-5a-methyl-1H-5a,6,7,8,9-pentahydro-1-oxopyrano[4,3-B][1]benzopyran] | – | – | 15 ± 5.8 | – |
| O=c1occc2nc3c(cc12)CCCC3 [Compound 24, 1H-6,7,8,9-tetrahydro-1-oxopyrano[4,3-b]quinoline] | 1.9 | 3.3 | – | – |
| Cc1cc2ncc3c(c2c(=O)o1)CCCC3 [Compound 26, 1H-3-methyl-7,8,9,10-tetrahydropyrano[4,3-c]isoquinolin-1-one] | 2.7 | 13.7 | – | – |
| C=C(C)[C@H]1CCC2=Cc3c(cc(C)oc3=O)O[C@H]2C1 [Compound 28, (5aS,7S)-7-Isopropenyl-3-methyl-1H-5a,6,7,8,9-pentahydro-1-oxopyrano[4,3-b][1]benzopyran] | 17 | 30 | – | – |
| C=C(C)[C@H]1CCC2=Cc3c(cc(-c4cccnc4)oc3=O)O[C@H]2C1 [Compound 29, (5aS,7S)-7-Isopropenyl-3-(3-pyridyl)-1H-5a,6,7,8,9-pentahydro-1-oxopyrano[4,3-b][1]benzopyran] | 21 | 39 | – | – |
| C=C(C)[C@H]1CCC2=Cc3c(cc(-c4ccc(OC)c(OC)c4)oc3=O)OC2C1 (stereo partly drawn) [Compound 30, (5aS,7S)-7-Isopropenyl-3-(3,4-dimethoxyphenyl)-1H-5a,6,7,8,9-pentahydro-1-oxopyrano[4,3-b][1]benzopyran] | 13.3 | 21.9 | – | – |
| O=C(O)Cc1cc2c(c(=O)o1)C=C1CCCCC1O2 (stereo not shown) [Compound 32, 3-(Carboxymethyl)-1H-5a,6,7,8,9-pentahydro-1-oxopyrano[4,3-b][1]benzopyran] | 10.3 | 7.9 | – | – |
| O=C(CCCCC(=O)Cc1cc2c(c(=O)o1)C=C1CCCCC1O2)Cc1cc2c(c(=O)o1)C=C1CCCCC1O2 (stereo not shown) [Compound 33, 1,8-Di-{3-[1H-5a,6,7,8,9-pentahydro-1-oxopyrano[4,3-b][I]benzopyranyl]}-2,7-octanedione] | 57 | 76 | – | – |
| CCCCC(=O)OCC(C)[C@H]1CCC2C(O)c3c(cc(-c4ccc(OC)c(OC)c4)oc3=O)O[C@H]2C1 (stereo partly drawn) [Compound 37, (5aS,7S)-7-[2-(1-Pentanoyloxypropyl)]-10-hydroxy-3-(3,4-dimethoxyphenyl)-1H-5a,6,7,8,9,9a,10-heptahydro-1-oxopyrano[4,3-b][1]benzopyran] | 36.8 | 52.4 | – | – |
| tri(deacetyl)pyripyropene A [Compound 22] | – | – | – | inhibition of DNA synthesis in L1210 cells ([3]; 25 μM): no significant effects; inhibition of DNA synthesis in L1210 cells ([3]; 50 μM, 50 µM): no effect; also recorded: ineffective; also recorded: fail to inhibit DNA synthesis |
